{
  "source": "patent US9586914B2",
  "about": "“Modulators of C3a receptors” (THE UNIVERSITY OF QUEENSLAND, priority 2011, dated 2017)",
  "key": {"[1]": {"tested_on": "IL1B, IL8, CCL3, EGR1, FOSB and TNF gene expression in HMDMs", "test": "Regulation of inflammatory genes in HMDM (qRT-PCR)", "type": "cell-based, human", "settings": "HMDMs, 300 nM, 30 minutes; qRT-PCR, fold change from control", "from_the_text": "Human monocyte-derived macrophages (HMDMS) were isolated from buffy coat of anonymous donors provided by the Australian Red Cross Blood Service at Kelvin Grove, Queensland, Australia. White blood cells were separated from other blood components into different layers using Ficoll-Paque Plus Density Centrifugation (GE Healthcare Bio-Science, Uppsala, Sweden) according to manufacturer's instruction. The isolated white blood cells were repeatedly washed with ice-cold water to remove contaminating erythrocytes. CD14^+ monocytes were positively selected from white blood cells using CD14^+ Macs Magnetic Beads (Miltenyi biotech, Auburn, Calif., USA) after successive magnetic sorting and washings. CD14^+ monocytes (1.5×10^6 cells/mL) were seeded in 10 mL of IMDM supplemented with 10% fetal calf serum (FBS), 10 U/mL streptomycin, 10 U/mL penicillin and 2 mmol L-glutamine (Invitrogen). To generate HMDMS, […] of recombinant human macrophage colony stimulating factor (M-CSF) (Peprotech Inc., rocky Hill, N.J., USA) was added for differentiation. HMDMS were maintained at 37° C. in a humidified incubator with 5% CO2 for a week to fully differentiate. At day 7, the adhered HMDMS were harvested by gentle scraping in saline solution.\nHMDMs (2×10^6) in 2 mL of IMDM medium were transferred into each well on a 6-well plate. The cells were left to incubate for 6 h to allow adhesion before being serum starved in serum free IMDM to reduce background noise of the C3a treatment. In the time response experiment, cells were treated with 10 nM of C3a or agonist (compound 8 or 64) for 0.5, 1, 2 or 6 h. In concentration response experiments, cells were treated with 1, 10, 100 or 300 nM for 1 h. To prepare the samples for the microarray experiments, cells were treated with agonist at 100-300 nM for 30 min or 1 h in the absence or presence of the antagonist (e.g. SB-290157 or antagonists). […] Cells were washed with saline solution at the end of each treatment before the RNA extraction step.\nTotal RNA was extracted from cells using RNeasy Mini Plus kit (Qiagen, USA) according to the manufacturer's instructions. The concentration of the RNA was determined by measuring absorbance at λ=260/280 […] on a nanodrop spectrophotometer (Thermo Scientific), according to the manufacturer's instructions.\nTotal RNA (2-5 μg) was reverse transcribed with Superscript III (Invitrogen, USA) using random oligo dT primer. Reagents were incubated (50 min, 50° C.; then 10 min, 70° C.) in thermal cyclers (Bio-Rad) to complete the reaction, cDNA samples were stored at −20° C. until further use. All RNA work was performed on ice (4° C.) to prevent degradation of the RNA samples.\ncDNA (0.5 μg) samples were prepared with 5 μL SYBR® Green PCR master mix (Applied Biosystems™, CA, USA), 2 μL relevant primers (2 μM) and 1 μL dH2O before being analysed using an ABI 7900HT Fast Real-Time PCR System (Applied Biosystems™, CA, USA) according to the manufacturer's specifications. Fluorescence data was collected during the extension phase (60° C.). The concentration response data for each sample was then normalised against the same data for control housekeeping gene, (18S) to quantify and generate gene expression data. All samples were done in at least duplicate. Primers were designed using the Primer-BLAST software (National Center for Biotechnology Information, USA). Primers contained, amplicons that cross exon-exon boundaries to prevent amplification of genomic DNA. […]"}, "[2]": {"target": "T1, C3aR (Homo sapiens, UniProt Q16581)", "T1 construct": "peripheral blood mononuclear cells were isolated from buffy coat (obtained from Australian Red Cross Blood Service, Kelvin Grove); endogenous in cells; host or cells: primary human monocyte-derived macrophages (HMDM) differentiated from CD14+ monocytes of donor buffy coat", "T1 sequence (Q16581 1-482)": "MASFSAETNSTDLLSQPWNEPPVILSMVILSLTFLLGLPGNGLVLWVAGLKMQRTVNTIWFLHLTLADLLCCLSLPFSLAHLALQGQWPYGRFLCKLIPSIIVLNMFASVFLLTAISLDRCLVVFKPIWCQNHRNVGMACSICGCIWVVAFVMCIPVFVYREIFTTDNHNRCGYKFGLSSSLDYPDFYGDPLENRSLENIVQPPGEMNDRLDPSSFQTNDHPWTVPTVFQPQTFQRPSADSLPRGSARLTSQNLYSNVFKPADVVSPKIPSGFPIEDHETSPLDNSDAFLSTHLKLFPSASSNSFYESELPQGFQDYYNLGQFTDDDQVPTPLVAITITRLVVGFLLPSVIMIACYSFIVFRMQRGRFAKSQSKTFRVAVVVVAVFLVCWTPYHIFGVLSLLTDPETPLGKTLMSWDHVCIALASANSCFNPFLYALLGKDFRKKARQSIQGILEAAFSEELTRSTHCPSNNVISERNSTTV", "test": "Calcium mobilization assay in HMDM (agonist/antagonist activity)", "type": "cell-based", "settings": "Table 9, Ca^2+ mobilization, HMDM", "how_it_was_run": "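Human monocyte-derived macrophages, 5×10^4 cells/well, loaded 1 h at 37 °C with 4 μM Fluo-3 in HBSS/HEPES/probenecid buffer, pH 7.4. Agonist mode: calcium release read 300 s; antagonist mode: 900 s compound preincubation then agonist, read 300 s (ex 485/em 520 nm); compared with hC3a.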"}},
  "note": "Entries after “also recorded” stand apart in the source; their conditions may differ.",
  "data": [
    {"smiles": "CC(C)C[C@H](NC(=O)c1c[nH]c2ccccc12)c1nc(C(=O)N[C@@H](CCCNC(=N)N)C(=O)O)co1", "note": "[Compound 8, 3-Indole Carboxylic Acid-Leucine-Oxazole-Arginine-OH]", "values": [
      {"measurement": "Induction of gene expression of IL1B, IL8, CCL3, EGR1, FOSB and TNF", "setting": "[1]", "result": "significantly induce gene expression; also recorded: induced expression of inflammatory genes"},
      {"measurement": "pEC50 ± SEM", "setting": "[2]", "result": "8.15 ± 0.10"},
      {"measurement": "EC50", "setting": "[2]; read-out: EC50", "result": 7.2, "unit": "nM"}
    ]}
  ]
}
